Experimental data reported in patent US20050267124A1, “Pharmaceutical compositions comprising NEP-inhibitors, inhibitors of the endogenous producing system and PDEV inhibiitors” (Solvay Pharmaceuticals GmbH, priority 2004, published 2005).

Columns and labels:
Male Sprague-Dawley rats = experiment: Big-ET-induced hypertension following intravenous bolus administration in rats; type: in vivo, rat; conditions: for Maximal Big-ET-induced increase in SAP: anaesthetised rats, i.v. bolus sildenafil 1 mg/kg and/or compound of Formula IV 10 μmol/kg, 0.5 nmol/kg Big-ET 8 min later, mean increase from baseline
Procedure: 1. Big-ET-Induced Hypertension Following Intravenous Bolus Administration in Rats
Male Sprague-Dawley rats (˜[…], fed a standard chow diet, fasted for 18 h prior to the experiments, with free access to drinking water) were anaesthetised with 1 ml/kg Rompun/Ketavet 1:1, and then transferred to servo-controlled, heated tables to maintain body temperature at 37° C. A pressure transducer (Statham) was connected to one carotid artery for measurement of arterial blood pressure. Both jugular veins were cannulated for compound and Big-ET-infusion (Big-ET=endogenous precursor of endothelin), respectively. After an equilibration period of 20 minutes (=min), the animals received either vehicle (10% arlatone G, 10% ethanol, 80% H2O), sildenafil (1 mg/kg), compound of Formula IV (10 μmol/kg), or a combination of sildenafil+compound of Formula IV intravenously (over 1 min in a total volume of 2 ml/kg body weight). 8 min later, 0.5 nmol/kg Big-ET was infused (over 1 min; Big-ET was from Bachem, Heidelberg). Systolic (SAP) and diastolic arterial blood pressures and heart rate were recorded every 5 min for the next 15 min.
The maximal pressor and bradycardic effects were typically reached within 5 min following Big-ET administration.
(§1) The results are expressed as mean±SEM of the maximal systolic blood pressure increase (from baseline) observed after the Big-ET challenge (n: number of animals). 2. Effect on Blood Pressure in Spontaneously Hypertensive Rats

[1] = tested on: spontaneously hypertensive rats (SHR); experiment: Effect on blood pressure in spontaneously hypertensive rats (telemetry); type: in vivo, rat; conditions: i.v. sildenafil 3 mg/kg, alone or with compound of Formula IV 10 μmol/kg, change vs. baseline averaged over last 15 min of 30 min after treatment
Excerpt: as §1
Male spontaneously hypertensive rats (=SHR, insulin resistant strain from Charles River; aged 6 months) were equipped with telemetry transmitters for continuous monitoring of blood pressure and heart rate. Telemetry transmitters for continuous monitoring of blood pressure, heart rate and locomotor activity (TA11PA-C40, Data Sciences, USA) were implanted intraabdominally under inhalative halothane anesthesia. A midline abdominal incision was made, and the abdominal aorta was visualized by removal of retroperitoneal fat and connective tissue. A ligature was placed caudal of the renal arteries, the aorta was punctured with a 22G needle, and the catheter was advanced into the aorta. The entry point was sealed with tissue adhesive (Vetbond®, 3M, USA), the ligature was removed, and the abdominal incision was closed. […]
On the day of the experiments, blood pressure was first monitored for 30 min under baseline (untreated) conditions before a group of animals received sildenafil (3 mg/kg), and another one sildenafil (3 mg/kg) combined with compound of Formula IV (10 μmol/kg) via injection into the caudal vein. Blood pressure was then measured for another 30 min. […]

| SMILES | time for which the drop in blood pressure was stable (Male Sprague-Dawley rats; after i.v. sildenafil 1 mg/kg, until timepoint of Big-ET application) | Maximal Big-ET-induced increase in SAP (Male Sprague-Dawley rats) [mm Hg] | drop in systolic blood pressure as compared to baseline (Male Sprague-Dawley rats; immediately after i.v. administration, before the Big-ET challenge, sildenafil 1 mg/kg, compound of Formula IV 10 μmol/kg) [mm Hg] | Average change in systolic blood pressure [1] [mm Hg] | effect on the hypotensive action of sildenafil (Male Sprague-Dawley rats; compound of Formula IV 10 μmol/kg i.v. with sildenafil 1 mg/kg, before Big-ET challenge) |
| --- | --- | --- | --- | --- | --- |
| CCCc1nn(C)c2c(=O)[nH]c(-c3cc(S(=O)(=O)N4CCN(C)CC4)ccc3OCC)nc12 [Sildenafil, sildenafil] | at least 8 min | 42.6 | 15±3 | −10.5 |  |
| O=C(O)CN1C(=O)C(NC(=O)C2(CC(CCc3ccccc3)C(=O)O)CCCC2)CCc2ccccc21 (stereo not drawn) [compound of Formula IV, 2-[1-(1-carboxymethyl-2-oxo-2,3,4,5-tetrahydro-1H-benzo[b]azepin-3-ylcarbamoyl)-cyclopentylmethyl]-4-phenyl-butyric acid] |  | 43.0 |  |  | not reinforce the hypotensive action of sildenafil |
